The source of these data is patent publication US20060034819A1, “Proteins and methods useful for assessing risk of cardiovascular disease” (UNITHER PHARMA, INC., priority 2002, published 2006).

The test system of one assay is NOS. The settings on record: LNMMA compared with ADMA; cited from earlier work.
The next assay relates to mutant DDAH. Briefly: fluorescence polarization immunoassay (FPIA) with ADMA-OG. It is filed as binding, Human. The source says:
Fluorescence Polarization Immunassay (FPIA) is another homogeneous solution phase immunoassay for small molecule analytes, which has the unique advantage that a positive signal is generated by competition. FPIA detects the difference between mutant DDAH-bound and free fluorescently-labelled ligand as the polarization of emitted light when excited by plane-polarized light. Small molecule ligands tumble so fast during the excited state that emitted light is nearly isotropic, whereas, the larger mutant DDAH-bound ligand hardly rotates at all during the excited state and therefore emits highly polarized or anisotropic light. Analyte is measured by its ability to compete with label for binding to mutant DDAH, and thereby lower the polarization of emitted light, and increase its intensity at certain angles relative to the incident light. […] Free ADMA is measured as a function of its concentration-dependent ability to compete with fluorescein-ADMA for binding to mutant DDAH thereby reducing polarized emission.
ADMA is conjugated through its alpha-amino group to Oregon Green (OG) and purified by reversed phase HPLC. […] At 10^−10 M ADMA-OG, polarization is determined after equilibration with various concentrations of mutant DDAH ranging from 10^−10 M to 10^−6 M. The minimum value should be equivalent to that of the free conjugate. […]

For another assay, the system named is DDAH. The settings on record: DDAH as an ADMA sensor; binding affinity low; cited from earlier work.

Regarding `CN(C)C(=N)NCCCC(N)C(=O)O` (centres unmarked) [ADMA, asymmetric N,N-dimethyl arginine], the “potency as inhibitors of NOS” value in the assay with NOS is listed as “equipotent”.
As to `CNC(=N)NCCC[C@H](N)C(=O)O` [LNMMA, L,N-monomethylarginine], in the assay with NOS, the “potency as inhibitors of NOS” value is listed as “equipotent”.
In the case of `CN=C(NC)NCCC[C@H](N)C(=O)O` [SDMA, symmetric dimethylarginine], in the assay on mutant DDAH (concentration equivalent to 10^−7 M free ADMA), the inhibition of polarization result was “no detectable inhibition”. The Km in the assay with DDAH was > 100 µM.
As to `N=C(N)NCCC[C@H](N)C(=O)O` [arginine], the inhibition of polarization entry in the assay on mutant DDAH (100-fold higher concentration than 10^−7 M free ADMA) is reported as “no detectable inhibition”.

One may read the Km as the concentration of substrate that gives half-maximal velocity.
